# Data taken from ChEMBL document CHEMBL1201862, “PubChem BioAssay data set” (2004).
#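 Grown in 96-well plates, cells were treated for 48 hours with each compound at five concentrations. Insufficient inhibition: endpoint recorded as highest concentration tested. The concentration for 50% growth inhibition is given as GI50.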 The source made the active and inactive calls. Cut-off read from the data, not from the text of the source: active = GI50 up to about 1.1 µM and inactive = higher.
# Assays:
# Experiment in all cases: NCI-60 cell line screen, 48 h
# CCRF-CEM = system: CCRF-CEM
# SK-MEL-2 = system: SK-MEL-2
# OVCAR-8 = system: OVCAR-8
# T47D = system: T47D
# A549 = system: A549
# UO-31 = system: UO-31
# U-251 = system: U-251
# OVCAR-5 = system: OVCAR-5
# BT-549 = system: BT-549
# SNB-19 = system: SNB-19
# OVCAR-4 = system: OVCAR-4
# NCI-H522 = system: NCI-H522
# HCT-116 = system: HCT-116
# TK-10 = system: TK-10
# SR = system: SR
# SK-MEL-28 = system: SK-MEL-28
# MDA-MB-435 = system: MDA-MB-435
# NCI-H460 = system: NCI-H460
# 786-0 = system: 786-0
# UACC-62 = system: UACC-62
# HCC 2998 = system: HCC 2998
# DU-145 = system: DU-145
# IGROV-1 = system: IGROV-1
# UACC-257 = system: UACC-257
# HOP-92 = system: HOP-92
# SK-OV-3 = system: SK-OV-3
# MOLT-4 = system: MOLT-4
# HCT-15 = system: HCT-15
# PC-3 = system: PC-3
# SN12C = system: SN12C
# EKVX = system: EKVX
# LOX IMVI = system: LOX IMVI
# SW-620 = system: SW-620
# RPMI-8226 = system: RPMI-8226
# MCF7 = system: MCF7
# CAKI-1 = system: CAKI-1
# Hs-578T = system: Hs-578T
# HL-60 = system: HL-60
# HT-29 = system: HT-29
# Malme-3M = system: Malme-3M
# NCI/ADR-RES = system: NCI/ADR-RES
# SF-295 = system: SF-295
# SK-MEL-5 = system: SK-MEL-5
# HOP-62 = system: HOP-62
# MDA-MB-231 = system: MDA-MB-231
# MDA-N = system: MDA-N
# SF-539 = system: SF-539
# KM12 = system: KM12
# RXF 393 = system: RXF 393
# M14 = system: M14
# COLO 205 = system: COLO 205
# NCI-H226 = system: NCI-H226
# ACHN = system: ACHN
# SF-268 = system: SF-268
# SNB-75 = system: SNB-75
# K562 = system: K562
# NCI-H23 = system: NCI-H23
# A498 = system: A498
# OVCAR-3 = system: OVCAR-3
smiles,measurement,setting,value
COc1ccc(/C=C(\C#N)c2nc(-c3cc4ccccc4oc3=O)cs2)cc1,GI50,CCRF-CEM,> 100 µM (inactive)
same,GI50,SK-MEL-2,33.3 µM (inactive)
same,GI50,OVCAR-8,18.1 µM (inactive)
same,GI50,T47D,52.5 µM (inactive)
same,GI50,A549,32.3 µM (inactive)
same,GI50,UO-31,23.2 µM (inactive)
same,GI50,U-251,13.5 µM (inactive)
same,GI50,OVCAR-5,51.1 µM (inactive)
same,GI50,BT-549,14.2 µM (inactive)
same,GI50,SNB-19,16.4 µM (inactive)
same,GI50,OVCAR-4,23.9 µM (inactive)
same,GI50,NCI-H522,19.4 µM (inactive)
same,GI50,HCT-116,32.3 µM (inactive)
same,GI50,TK-10,26.2 µM (inactive)
same,GI50,SR,> 100 µM (inactive)
same,GI50,SK-MEL-28,27.5 µM (inactive)
same,GI50,MDA-MB-435,37.8 µM (inactive)
same,GI50,NCI-H460,21.4 µM (inactive)
same,GI50,786-0,19.3 µM (inactive)
same,GI50,UACC-62,22.7 µM (inactive)
same,GI50,HCC 2998,32.6 µM (inactive)
same,GI50,DU-145,65.2 µM (inactive)
same,GI50,IGROV-1,22.2 µM (inactive)
same,GI50,UACC-257,31.8 µM (inactive)
same,GI50,HOP-92,18.3 µM (inactive)
same,GI50,SK-OV-3,16.4 µM (inactive)
same,GI50,MOLT-4,> 100 µM (inactive)
same,GI50,HCT-15,51.6 µM
same,GI50,PC-3,47.8 µM (inactive)
same,GI50,SN12C,23.8 µM (inactive)
same,GI50,EKVX,35 µM (inactive)
same,GI50,LOX IMVI,30.5 µM (inactive)
same,GI50,SW-620,19.7 µM (inactive)
same,GI50,RPMI-8226,42.9 µM (inactive)
same,GI50,MCF7,55.7 µM (inactive)
same,GI50,CAKI-1,76 µM (inactive)
same,GI50,Hs-578T,24.6 µM (inactive)
same,GI50,HL-60,> 100 µM (inactive)
same,GI50,HT-29,41.3 µM (inactive)
same,GI50,Malme-3M,20.1 µM (inactive)
same,GI50,NCI/ADR-RES,27.2 µM (inactive)
same,GI50,SF-295,21.9 µM (inactive)
same,GI50,SK-MEL-5,22.1 µM (inactive)
same,GI50,HOP-62,15.2 µM (inactive)
same,GI50,MDA-MB-231,14.8 µM (inactive)
same,GI50,MDA-N,44.5 µM (inactive)
same,GI50,SF-539,21 µM (inactive)
same,GI50,KM12,24.3 µM (inactive)
same,GI50,RXF 393,21.1 µM (inactive)
same,GI50,M14,24.8 µM (inactive)
same,GI50,COLO 205,50.6 µM (inactive)
same,GI50,NCI-H226,31.6 µM (inactive)
same,GI50,ACHN,19 µM (inactive)
same,GI50,SF-268,17.9 µM (inactive)
same,GI50,SNB-75,23.2 µM (inactive)
same,GI50,K562,58.5 µM (inactive)
Cc1ncc([N+](=O)[O-])n1CC[N+](C)([O-])CCCCn1ccnc1[N+](=O)[O-] (configuration not stated),GI50,CCRF-CEM,> 100 µM (inactive)
same,GI50,SK-MEL-2,> 100 µM (inactive)
same,GI50,OVCAR-8,> 100 µM (inactive)
same,GI50,T47D,> 100 µM (inactive)
same,GI50,A549,> 100 µM (inactive)
same,GI50,UO-31,> 100 µM (inactive)
same,GI50,U-251,> 100 µM (inactive)
same,GI50,OVCAR-5,> 100 µM (inactive)
same,GI50,BT-549,> 100 µM (inactive)
same,GI50,OVCAR-4,> 100 µM (inactive)
same,GI50,NCI-H522,> 100 µM (inactive)
same,GI50,HCT-116,> 100 µM (inactive)
same,GI50,TK-10,> 100 µM (inactive)
same,GI50,SR,> 100 µM (inactive)
same,GI50,NCI-H23,> 100 µM (inactive)
same,GI50,SK-MEL-28,> 100 µM (inactive)
same,GI50,MDA-MB-435,> 100 µM (inactive)
same,GI50,NCI-H460,> 100 µM (inactive)
same,GI50,786-0,> 100 µM (inactive)
same,GI50,UACC-62,> 100 µM (inactive)
same,GI50,DU-145,> 100 µM (inactive)
same,GI50,IGROV-1,> 100 µM (inactive)
same,GI50,UACC-257,> 100 µM (inactive)
same,GI50,SK-OV-3,> 100 µM (inactive)
same,GI50,MOLT-4,> 100 µM (inactive)
same,GI50,HCT-15,> 100 µM
same,GI50,PC-3,> 100 µM (inactive)
same,GI50,SN12C,> 100 µM (inactive)
same,GI50,EKVX,> 100 µM (inactive)
same,GI50,LOX IMVI,> 100 µM (inactive)
same,GI50,SW-620,> 100 µM (inactive)
same,GI50,RPMI-8226,> 100 µM (inactive)
same,GI50,MCF7,> 100 µM (inactive)
same,GI50,CAKI-1,> 100 µM (inactive)
same,GI50,Hs-578T,> 100 µM (inactive)
same,GI50,HL-60,> 100 µM (inactive)
same,GI50,HT-29,> 100 µM (inactive)
same,GI50,A498,> 100 µM (inactive)
same,GI50,Malme-3M,> 100 µM (inactive)
same,GI50,NCI/ADR-RES,> 100 µM (inactive)
same,GI50,SF-295,> 100 µM (inactive)
same,GI50,SK-MEL-5,> 100 µM (inactive)
same,GI50,HOP-62,> 100 µM (inactive)
same,GI50,MDA-MB-231,> 100 µM (inactive)
same,GI50,MDA-N,> 100 µM (inactive)
same,GI50,SF-539,> 100 µM (inactive)
same,GI50,OVCAR-3,> 100 µM (inactive)
same,GI50,KM12,> 100 µM (inactive)
same,GI50,RXF 393,> 100 µM (inactive)
same,GI50,M14,> 100 µM (inactive)
same,GI50,COLO 205,> 100 µM (inactive)
same,GI50,NCI-H226,> 100 µM (inactive)
same,GI50,ACHN,> 100 µM (inactive)
same,GI50,SF-268,> 100 µM (inactive)
same,GI50,SNB-75,> 100 µM (inactive)
same,GI50,K562,> 100 µM (inactive)
